According to patent US11752105B2, “Spray drying process with continuous preparation of spray solution” (Hovione Scientia Limited, priority 2018, dated 2023):

Test: Continuous solution preparation: suspension passed through series of five micro-reactors (continuous dissolution)
Type: physicochemical
Details: solvent H2O; concentration 0.3 % wt
Description: The resulting suspension was continuously passed through a series of five micro-reactors with microchannels having 500 micron diameter by means of an intensifier pump (MicroDeBEE) at a pressure of 1862 bar. […] The same experiment was repeated with the same setup for other pharmaceutical excipients and solvents. Trihalose is crystalline form and was used as a model for crystalline molecules to mimic API's.

Continuous dissolution: YES
SMILES: CC(C)C[C@H](N)C(=O)O [L-Leucine]
